Where “and” joins values, the source holds several entries; their conditions need not be identical. Identical values can stand only once. Like-named read-outs stand apart in the source and are kept apart here.
System: LTB0016 intracellular amastigotes in J774.1 macrophages
Test: Macrophage-amastigote model, reference strain
Format: cell-based, Leishmania amazonensis
Details: for Growth (%) Exp1 Infección / Growth (%) Exp1 A/MØ / Growth (%) Exp1 A/100MØ / Growth (%) Exp1 %Control / Growth (%) Exp2 Infección / Growth (%) Exp2 A/MØ / Growth (%) Exp2 A/100MØ / Growth (%) Exp2 %Control / Growth (%) Exp3 Infección / Growth (%) Exp3 A/MØ / Growth (%) Exp3 A/100MØ / Growth (%) Exp3 %Control / Average A/100MØ: 72 h; for Growth (%) Exp1 Infección / Growth (%) Exp2 Infección / Growth (%) Exp3 Infección: % infected macrophages; for Growth (%) Exp1 A/MØ / Growth (%) Exp2 A/MØ / Growth (%) Exp3 A/MØ: amastigotes per infected macrophage; for Growth (%) Exp1 A/100MØ / Growth (%) Exp2 A/100MØ / Growth (%) Exp3 A/100MØ: infection index; for Growth (%) Exp1 %Control / Growth (%) Exp2 %Control / Growth (%) Exp3 %Control: infection index vs DMSO; for Average A/100MØ: average of Exp1-3
Description: We used a previously described methodology, with some modifications. Macrophage monolayers, grown in RMPIc medium, for 3 days, were detached from the bottom of the culture chamber, by physical treatment (low temperature and light strokes). Obtained macrophages were seeded in flat-bottom 96-well culture plates, at a density of 2 × 10^5 cells mL^−1 (40,000 macrophages/well), in a final volume of 200 µL. Plates were incubated for 2 h, and the supernatant was discarded to remove non-adhered macrophages. Medium was replaced with stationary-phase promastigotes suspended in 200 µL of RPMIc (2 × 10^6 parasites mL^−1, 400,000 parasites/well), at a macrophage: parasite ratio 1:10 [40]. The plates were incubated for 4 h. Afterwards the medium was replaced with fresh RPMIc and increasing concentrations of compounds or drugs tested were applied, in volumes of 2 µL, according to the different treatment groups. Plates were kept for 72 h, at 37 °C and 5% CO2. The medium was discarded and the wells were washed twice with PBS. Next, a Giemsa staining was performed in situ. It consisted of adding 200 µL of methanol/well, incubating for 5 min, discarding the fixative, and letting it dry at room temperature. Later, the Giemsa solution (10% in PBS w/v, 200 µL/well) was added, incubated for 10 min, and washed with PBS, allowing it to dry. Finally, the bottom of the plates was detached by percussion and the circular bottoms (wells) were fixed to slides with Permount synthetic resin, for later evaluation (Alcazar W., manuscript in preparation). Cell counting was performed with a 100× immersion objective. A minimum of 200 random macrophages were examined. The percentage of infected macrophages (% infection) and the average number of amastigotes present in infected macrophages (amastigotes) were determined. […] The infection rate represents the number of intracellular amastigotes per 100 macrophages evaluated. Additionally, the GI50 for the decrease in the infection rate was calculated. At least three independent experiments were performed. The effect of amphotericin-B (AmB) [Sigma-Aldrich, (St. Louis, MO, USA)] was included as positive control of the assay.

C=C(C)C1CCC2(C=NO)CCC3(C)C(CCC4C5(C)CCC(=NO)C(C)(C)C5CCC43C)C12 (centres unmarked) [Compound 18]
SI (CC50/GI50) LTB0016 (J774.1 CC50 / intracellular amastigote GI50, Table 2): 240.45
Growth (%) Exp1 Infección (LTB0016, 0.10 µM): 52.43%
Growth (%) Exp1 A/MØ (LTB0016, 0.10 µM): 3.54
Growth (%) Exp1 A/100MØ (LTB0016, 0.10 µM): 185.69
Growth (%) Exp1 %Control (LTB0016, 0.10 µM): 70.78%
Growth (%) Exp2 Infección (LTB0016, 0.10 µM): 57.50%
Growth (%) Exp2 A/MØ (LTB0016, 0.10 µM): 3.36
Growth (%) Exp2 A/100MØ (LTB0016, 0.10 µM): 193.20
Growth (%) Exp2 %Control (LTB0016, 0.10 µM): 90.86%
Growth (%) Exp3 Infección (LTB0016, 0.10 µM): 41.73%
Growth (%) Exp3 A/MØ (LTB0016, 0.10 µM): 2.66
Growth (%) Exp3 A/100MØ (LTB0016, 0.10 µM): 111.00
Growth (%) Exp3 %Control (LTB0016, 0.10 µM): 62.52%
Average A/100MØ (LTB0016, 0.10 µM): 163.30
Growth (%) Exp1 Infección (LTB0016, 0.50 µM): 36.24%
Growth (%) Exp1 A/MØ (LTB0016, 0.50 µM): 3.35
Growth (%) Exp1 A/100MØ (LTB0016, 0.50 µM): 121.51
Growth (%) Exp1 %Control (LTB0016, 0.50 µM): 46.32%
Growth (%) Exp2 Infección (LTB0016, 0.50 µM): 32.38%
Growth (%) Exp2 A/MØ (LTB0016, 0.50 µM): 2.08
Growth (%) Exp2 A/100MØ (LTB0016, 0.50 µM): 67.35
Growth (%) Exp2 %Control (LTB0016, 0.50 µM): 31.68%
Growth (%) Exp3 Infección (LTB0016, 0.50 µM): 25.00%
Growth (%) Exp3 A/MØ (LTB0016, 0.50 µM): 2.29
Growth (%) Exp3 A/100MØ (LTB0016, 0.50 µM): 57.25
Growth (%) Exp3 %Control (LTB0016, 0.50 µM): 32.25%
Average A/100MØ (LTB0016, 0.50 µM): 82.04
Growth (%) Exp1 Infección (LTB0016, 1.00 µM): 10.68%
Growth (%) Exp1 A/MØ (LTB0016, 1.00 µM): 3.15
Growth (%) Exp1 A/100MØ (LTB0016, 1.00 µM): 33.68
Growth (%) Exp1 %Control (LTB0016, 1.00 µM): 12.84%
Growth (%) Exp2 Infección (LTB0016, 1.00 µM): 24.45%
Growth (%) Exp2 A/MØ (LTB0016, 1.00 µM): 1.29
Growth (%) Exp2 A/100MØ (LTB0016, 1.00 µM): 31.54
Growth (%) Exp2 %Control (LTB0016, 1.00 µM): 14.83%
Growth (%) Exp3 Infección (LTB0016, 1.00 µM): 17.20%
Growth (%) Exp3 A/MØ (LTB0016, 1.00 µM): 3.00
Growth (%) Exp3 A/100MØ (LTB0016, 1.00 µM): 51.60
Growth (%) Exp3 %Control (LTB0016, 1.00 µM): 29.06%
Average A/100MØ (LTB0016, 1.00 µM): 38.94
Growth (%) Exp1 Infección (LTB0016, 5.00 µM): 9.37%
Growth (%) Exp1 A/MØ (LTB0016, 5.00 µM): 1.83
Growth (%) Exp1 A/100MØ (LTB0016, 5.00 µM): 17.18
Growth (%) Exp1 %Control (LTB0016, 5.00 µM): 6.55%
Growth (%) Exp2 Infección (LTB0016, 5.00 µM): 17.07%
Growth (%) Exp2 A/MØ (LTB0016, 5.00 µM): 1.50
Growth (%) Exp2 A/100MØ (LTB0016, 5.00 µM): 25.61
Growth (%) Exp2 %Control (LTB0016, 5.00 µM): 12.04%
Growth (%) Exp3 Infección (LTB0016, 5.00 µM): 10.71%
Growth (%) Exp3 A/MØ (LTB0016, 5.00 µM): 2.75
Growth (%) Exp3 A/100MØ (LTB0016, 5.00 µM): 29.45
Growth (%) Exp3 %Control (LTB0016, 5.00 µM): 16.59%
Average A/100MØ (LTB0016, 5.00 µM): 24.08
Growth (%) Exp1 Infección (LTB0016, 10.00 µM): 5.40%
Growth (%) Exp1 A/MØ (LTB0016, 10.00 µM): 1.67
Growth (%) Exp1 A/100MØ (LTB0016, 10.00 µM): 9.00
Growth (%) Exp1 %Control (LTB0016, 10.00 µM): 3.43%
Growth (%) Exp2 Infección (LTB0016, 10.00 µM): 11.23%
Growth (%) Exp2 A/MØ (LTB0016, 10.00 µM): 1.20
Growth (%) Exp2 A/100MØ (LTB0016, 10.00 µM): 13.48
Growth (%) Exp2 %Control (LTB0016, 10.00 µM): 6.34%
Growth (%) Exp3 Infección (LTB0016, 10.00 µM): 3.48%
Growth (%) Exp3 A/MØ (LTB0016, 10.00 µM): 3.00
Growth (%) Exp3 A/100MØ (LTB0016, 10.00 µM): 10.44
Growth (%) Exp3 %Control (LTB0016, 10.00 µM): 5.88%
Average A/100MØ (LTB0016, 10.00 µM): 10.97
GI50 (LTB0016 intracellular amastigotes, GraphPad regression, read-out: GI50 (µM) Experiment 1 Regresion): 0.29 µM
GI50 (LTB0016 intracellular amastigotes, GraphPad regression, read-out: GI50 (µM) Experiment 2 Regresion): 0.34 µM
GI50 (LTB0016 intracellular amastigotes, GraphPad regression, read-out: GI50 (µM) Experiment 3 Regresion): 0.2 µM
GI50 (intracellular amastigotes, Supplementary Materials II, read-out: GI50 (µM) LTB0016, mean of three experiments): 0.278 µM and 0.28 µM
GI50 (summary bound for reference strain LTB0016 and patient isolates, read-out: GI50): < 1 µM
